In patent US20060160703A1, “Selective herbicides based on substituted cyclic dicarbonyl compounds and safeners” (priority 2003, published 2006):

Key:
Format in all cases: in vivo
Summer barley [1] = assay: Outdoor trial, post-emergence, tank mix (Example 1); conditions: herbicide 0.120 kg/ha, combinations: tank mix mefenpyr-diethyl:compound (I) = 2:1, 100% = plants have died, 0% = like control
Protocol: (§1) Seeds of monocotyledonous and dicotyledonous weed and crop plants are placed into sandy loam in wood fiber pots or in plastic pots, covered with soil and cultivated in a greenhouse, including during the vegetation period outdoors outside of the greenhouse, under good growth conditions. Two-three weeks after sowing, the test plants are treated at the one- to three-leaf stage. […], formulated as wettable powders (WP) or emulsifiable concentrates (EC) are, in various dosages with a water application rate of 300 l/ha (converted), with added wetting agent (0.2 to 0.3%) sprayed onto the plants and the surface of the soil. Three to four weeks after the treatment of the test plants, the effect of the preparations is rated visually in comparison to untreated controls (herbicidal effect in percent (%): 100% effect=plants have died, 0% effect=like control plants).
(§2) If it is additionally to be tested as to whether safeners can improve the plant compatibility of test substances in the case of crop plants, the following options are used for applying the safener:
(§3) the safener is applied together with the test substance as a tank mix (the amount of safener is stated in g/ha or as a ratio, based on the herbicide).
(§4) By comparing the effect of the test substances on crop plants without or with safener treatment, it is possible to assess the effect of the safener substance. [drawing 61] [drawing 62]
(§5) Outdoor trial/Post-emergence
(§6) Ratio mefenpyr-diethyl:compound of the formula (I)=2:1

Winter wheat = assay: as above; conditions: herbicide 0.120 kg/ha, combinations: tank mix mefenpyr-diethyl:compound (I) = 2:1
Protocol: as §1, §2, §3, §4, §5, §6

Summer wheat [2] = assay: as above; conditions: herbicide 0.120 kg/ha, combinations: tank mix mefenpyr-diethyl:compound (I) = 2:1
Protocol: as §1, §2, §3, §4, §5, §6

Winter barley = assay: as above; conditions: herbicide 0.120 kg/ha, combinations: tank mix mefenpyr-diethyl:compound (I) = 2:1
Protocol: as §1, §2, §3, §4, §5, §6

[3] = system: Corn of the Cultivar Lorenzo; assay: Greenhouse trial, post-emergence, corn (Example 3)
Protocol: as §1, §2
seeds of the crop plants are, before sowing, dressed with the safener substance (the amount of safener is stated in percent, based on the weight of the seed)
(§7) before the application of the test substances, the crop plants are sprayed with the safener at a certain application rate per hectare (usually 1 day before the application of the test substances).
as §4
Greenhouse Trial/Post-Emergence
Corn of the Cultivar Lorenzo
Addition of Safener: • a) Before sowing, seeds of the crop plants are dressed with the compound of the formula (IIe-5) (0.5% of safener, based on the weight of the seeds). • b) One day before the application of the compounds of the formula (I), the crop plants are treated with the compound of the formula (IIe-5) (application rate 100 g/ha). • c) One day before the application of the compounds of the formula (I), the crop plants are treated with isoxadifen (application rate 100 g/ha)
For the spray treatment, the herbicide was formulated as WP20 and the safener as WP10.

Summer barley [4] = assay: Greenhouse trial, post-emergence, safener one day before (Example 2); conditions: combinations: safener 100 g/ha one day before
Protocol: as §1, §2, §7, §4
(§8) Greenhouse trial/Post-emergence
(§9) One day before the application of the compounds of the formula (I), the crop plants are treated with the safener (application rate 100 g/ha).

Summer wheat [5] = assay: as above; conditions: combinations: safener 100 g/ha one day before
Protocol: as §1, §2, §7, §4, §8, §9

[6] = herbicide 0.013 kg/ha; greenhouse, post-emergence; corn cultivar Lorenzo; safener by method a), b) or c) as
[7] = herbicide 0.025 kg/ha; greenhouse, post-emergence; corn cultivar Lorenzo; safener by method a), b) or c) as
[8] = herbicide 0.050 kg/ha; greenhouse, post-emergence; corn cultivar Lorenzo; safener by method a) IIe-5 seed dressing 0.5%, b) IIe-5 100 g/ha one day before, c) isoxadifen 100 g/ha one day before

Structure (SMILES)	herbicidal effect in percent, Summer barley (Summer barley [1]) [%]	herbicidal effect in percent, Winter wheat (Winter wheat) [%]	herbicidal effect in percent, Summer wheat (Summer wheat [2]) [%]	herbicidal effect in percent, Winter barley (Winter barley) [%]	herbicidal effect in percent, Corn [3, 6] [%]	herbicidal effect in percent, Corn [3, 7] [%]	herbicidal effect in percent, Corn [3, 8] [%]	herbicidal effect in percent, Summer barley (Summer barley [4]; herbicide 0.100 kg/ha) [%]	herbicidal effect in percent, Summer wheat (Summer wheat [5]; herbicide 0.100 kg/ha) [%]	herbicidal effect in percent, Summer barley (Summer barley [4]; herbicide 0.025 kg/ha) [%]	herbicidal effect in percent, Summer barley (Summer barley [4]; herbicide 0.050 kg/ha) [%]	herbicidal effect in percent, Summer wheat (Summer wheat [5]; herbicide 0.025 kg/ha) [%]	herbicidal effect in percent, Summer wheat (Summer wheat [5]; herbicide 0.050 kg/ha) [%]
CCc1cc(Cl)cc(Cl)c1C1(Cl)C(=O)NC2(CCC(OC)CC2)C1=O (stereo not drawn) [I-1-1]	40	20	15	30	99	100	100	–	–	–	–	–	–
CCc1cc(Br)cc(CC)c1C1(Cl)C(=O)NC(C)(C)C1=O (stereo not drawn) [I-1-3]	–	–	–	–	0	0	85	–	–	–	–	–	–
CCc1cc(Br)cc(CC)c1C1(Cl)C(=O)NC2(CCCCC2)C1=O (stereo not drawn) [I-1-4]	–	–	–	–	–	–	–	10	10	–	–	–	–
CCc1cc(Cl)cc(Br)c1C1(Cl)C(=O)NC2(CCCCC2)C1=O (stereo not drawn) [I-1-5]	–	–	–	–	–	–	–	92	65	20	50	30	60
Cc1cc(-c2ccc(Cl)cc2)cc(C)c1C1(Cl)C(=O)N2CCCCN2C1=O [I-4-1]	–	–	–	–	–	–	–	80	60	20	80	20	60
Cc1cc(-c2ccc(Cl)cc2)cc(C)c1C1(Cl)C(=O)N2CCOCCN2C1=O [I-4-2]	–	–	–	–	–	–	–	97	97	40	95	60	97
